Reference: patent publication US20200405696A1, “INHIBITORS OF INDOLEAMINE 2,3-DIOXYGENASE AND/OR TRYPTOPHAN 2,3-DIOXYGENASE” (IDORSIA PHARMACEUTICALS LTD, priority 2018, published 2020)

Key:
[1] = target: T1, Recombinant full-length human IDO1 (Homo sapiens, UniProt P14902); experiment: IDO1 enzymatic assay (NFK quantified by LCMS); assay type: biochemical; settings: 2 nM enzyme, 5 μM L-tryptophan, pH6.5, 30 minutes pre-incubation at RT; mean values when measured multiple times; read-out: hIDO activity (IC50 in nM)
T1 construct: Recombinant full-length human IDO1 with a N-terminal hexahistidine tag; hexahistidine (His6) (N); made in house; host or cells: E. coli
Summary of the method: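 IC50 comes from four-parameter logistic fits of duplicate data, with NFK quantified by LCMS and normalized to L-Trp-(indole-d5). Compound (0.5 nM–10 μM) was preincubated 30 min at RT with 2 nM E. coli-expressed IDO1 before a 30 min reaction with 5 μM tryptophan in pH 6.5 buffer containing ascorbate and methylene blue.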

[2] = target: T2, Recombinant human TDO comprising amino acids 19-407 (Homo sapiens, UniProt P48775); experiment: TDO2 enzymatic assay (NFK quantified by LCMS); assay type: biochemical; settings: 15 nM enzyme, 200 μM L-tryptophan, pH7, 30 minutes pre-incubation at RT; mean values when measured multiple times; read-out: hTDO activity (IC50 in nM)
T2 construct: Recombinant human TDO comprising amino acids 19-407 with a N-terminal hexahistidine tag; hexahistidine (His6) (N); made in house; host or cells: E. coli
Summary of the method: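 NFK formed over 30 min at RT from 200 μM L-tryptophan was measured by LCMS, normalized to d5-tryptophan, after compound (0.5 nM–10 μM, duplicates, 0.6% DMSO) was preincubated 30 min with 15 nM recombinant His-tagged TDO 19-407 in phosphate buffer pH 7. IC50 from four-parameter logistic fit; repeats averaged.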

T2 sequence (P48775 19-406 limits assumed): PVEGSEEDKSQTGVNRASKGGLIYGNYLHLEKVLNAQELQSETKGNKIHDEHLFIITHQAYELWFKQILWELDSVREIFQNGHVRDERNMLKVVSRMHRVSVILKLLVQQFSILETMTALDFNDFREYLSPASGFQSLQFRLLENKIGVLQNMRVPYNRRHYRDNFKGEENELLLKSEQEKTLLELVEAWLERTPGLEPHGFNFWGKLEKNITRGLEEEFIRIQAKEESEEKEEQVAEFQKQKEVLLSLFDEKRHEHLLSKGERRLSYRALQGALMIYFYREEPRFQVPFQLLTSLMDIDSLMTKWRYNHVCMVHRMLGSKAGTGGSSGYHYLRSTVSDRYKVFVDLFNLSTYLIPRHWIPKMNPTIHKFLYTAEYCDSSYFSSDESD
T1 sequence (P14902 whole entry): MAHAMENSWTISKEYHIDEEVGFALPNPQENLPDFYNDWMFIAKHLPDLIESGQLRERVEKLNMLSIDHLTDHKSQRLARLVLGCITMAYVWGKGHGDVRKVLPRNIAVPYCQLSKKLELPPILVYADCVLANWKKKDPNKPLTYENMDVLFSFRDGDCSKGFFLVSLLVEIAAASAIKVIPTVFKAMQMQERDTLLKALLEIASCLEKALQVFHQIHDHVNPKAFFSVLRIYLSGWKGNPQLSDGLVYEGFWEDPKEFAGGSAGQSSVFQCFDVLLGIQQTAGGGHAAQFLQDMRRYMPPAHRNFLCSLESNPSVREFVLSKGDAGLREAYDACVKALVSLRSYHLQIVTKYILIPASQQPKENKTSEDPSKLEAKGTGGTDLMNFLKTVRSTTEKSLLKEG

| IC50 [1] | IC50 [2] | SMILES |
| --- | --- | --- |
| 24.3 nM | > 10200 nM | CCOc1ncc(-n2cc(C(O)c3c(C4CC4)sc4cncn34)nn2)cc1Cl (racemic) [Example 74, rac-[1-(5-Chloro-6-ethoxy-pyridin-3-yl)-1H-[1,2,3]triazol-4-yl]-(2-cyclopropyl-imidazo[5,1-b]thiazol-3-yl)-methanol] |
| 54.4 nM | 8410 nM | OC(c1cn(-c2ccccc2)nn1)c1c(C2CCCC2)sc2cncn12 (racemic) [Example 13, rac-(2-Cyclopentyl-imidazo[5,1-b]thiazol-3-yl)-(1-phenyl-1H-[1,2,3]triazol-4-yl)-methanol] |
| 36.1 nM | > 10200 nM | COc1ccc(-n2cc(C(O)c3c(C4CC4)sc4cncn34)nn2)c(OC)n1 (racemic) [Example 81, rac-(2-Cyclopropyl-imidazo[5,1-b]thiazol-3-yl)-[1-(2,6-dimethoxy-pyridin-3-yl)-1H-[1,2,3]triazol-4-yl]-methanol] |
| 23.6 nM | > 10200 nM | CC(C)(O)CCOc1ccc(-n2cc(C(O)c3c(C4(C)CC4)sc4cncn34)nn2)cc1Cl (racemic) [Example 303, rac-4-[2-Chloro-4-(4-{hydroxy-[2-(1-methyl-cyclopropyl)-imidazo[5,1-b]thiazol-3-yl]-methyl}-[1,2,3]triazol-1-yl)-phenoxy]-2-methyl-butan-2-ol] |
| 52.4 nM | > 10200 nM | COc1cc(-n2cc(C(O)c3c(C4CC4)sc4cncn34)nn2)cc(C#N)c1OC (racemic) [Example 198, rac-5-{4-[(2-Cyclopropyl-imidazo[5,1-b]thiazol-3-yl)-hydroxy-methyl]-[1,2,3]triazol-1-yl}-2,3-dimethoxy-benzonitrile] |
| 63.2 nM | > 10200 nM | Oc1cc(-n2cc(C(O)c3c(C4CC4)sc4cncn34)nn2)cc(C(F)(F)F)c1 (racemic) [Example 219, rac-3-{4-[(2-Cyclopropyl-imidazo[5,1-b]thiazol-3-yl)-hydroxy-methyl]-[1,2,3]triazol-1-yl}-5-trifluoromethyl-phenol] |
| 38.5 nM | > 10200 nM | Cn1ncc2cccc(-n3cc(C(O)c4c(C5CC5)sc5cncn45)nn3)c21 (racemic) [Example 254, rac-(2-Cyclopropyl-imidazo[5,1-b]thiazol-3-yl)-[1-(1-methyl-1H-indazol-7-yl)-1H-[1,2,3]triazol-4-yl]-methanol] |
| 28.3 nM | 7480 nM | CCc1sc2cncn2c1C(O)c1cn(-c2ccc(S(N)(=O)=O)cc2)nn1 (racemic) [Example 240, rac-4-{4-[(2-Ethyl-imidazo[5,1-b]thiazol-3-yl)-hydroxy-methyl]-[1,2,3]triazol-1-yl}-benzenesulfonamide] |
| 1250 nM | > 10200 nM | OC(c1ccc(-c2ccc(C(F)(F)F)cc2)s1)c1c(C2CC2)sc2cncn12 (racemic) [Example 162, rac-(2-Cyclopropyl-imidazo[5,1-b]thiazol-3-yl)-[5-(4-trifluoromethyl-phenyl)-thiophen-2-yl]-methanol] |
| 14.6 nM | > 10200 nM | CC(C)(O)COc1ccc(-n2cc(C(O)c3c(C4CC4)sc4cncn34)nn2)cc1 (racemic) [Example 139, rac-1-(4-{4-[(2-Cyclopropyl-imidazo[5,1-b]thiazol-3-yl)-hydroxy-methyl]-[1,2,3]triazol-1-yl}-phenoxy)-2-methyl-propan-2-ol] |
| 11.4 nM | > 10200 nM | COc1ccc(-n2cc(C(O)c3c(C(F)(F)F)sc4cncn34)nn2)cc1 (racemic) [Example 134, rac-[1-(4-Methoxy-phenyl)-1H-[1,2,3]triazol-4-yl]-(2-trifluoromethyl-imidazo[5,1-b]thiazol-3-yl)-methanol] |
| 138 nM | 8620 nM | OC(c1ccc(-c2cncc3ccccc23)s1)c1c(C2CC2)sc2cncn12 (racemic) [Example 177, rac-(2-Cyclopropyl-imidazo[5,1-b]thiazol-3-yl)-(5-isoquinolin-4-yl-thiophen-2-yl)-methanol] |
| 5.44 nM | > 10200 nM | CC(C)(O)COc1ccc(-n2cc([C@H](O)c3c(C4CC4)sc4cncn34)nn2)cc1 [Example 139a, 1-(4-{4-[(R)-(2-Cyclopropyl-imidazo[5,1-b]thiazol-3-yl)-hydroxy-methyl]-[1,2,3]triazol-1-yl}-phenoxy)-2-methyl-propan-2-ol] |
| 7.11 nM | > 10200 nM | NS(=O)(=O)CCCOc1ccc(-n2cc(C(O)c3c(C4CC4)sc4cncn34)nn2)cc1 (racemic) [Example 206, rac-3-(4-{4-[(2-Cyclopropyl-imidazo[5,1-b]thiazol-3-yl)-hydroxy-methyl]-[1,2,3]triazol-1-yl}-phenoxy)-propane-1-sulfonic acid amide] |
| 13.5 nM | > 10200 nM | CC(C)C(=O)Nc1ccc(-n2cc(C(O)c3c(C4CC4)sc4cncn34)nn2)cc1 (racemic) [Example 192, rac-N-(4-{4-[(2-Cyclopropyl-imidazo[5,1-b]thiazol-3-yl)-hydroxy-methyl]-[1,2,3]triazol-1-yl}-phenyl)-isobutyramide] |
| 13.1 nM | > 10200 nM | Oc1ccc(-n2cc(C(O)c3c([C@@H]4C[C@H]4F)sc4cncn34)nn2)cc1Cl (relative stereo) [Example 328, 2-Chloro-4-(4-{[2-(trans-2-fluoro-cyclopropyl)-imidazo[5,1-b]thiazol-3-yl]-hydroxy-methyl}-[1,2,3]triazol-1-yl)-phenol] |
| 569 nM | > 10200 nM | CC(C)(C)OC(=O)Nc1ccc(-n2cc(C(O)c3c(-c4ccccc4)sc4cncn34)nn2)cc1 (racemic) [Example 251, rac-(4-{4-[Hydroxy-(2-phenyl-imidazo[5,1-b]thiazol-3-yl)-methyl]-[1,2,3]triazol-1-yl}-phenyl)-carbamic acid tert-butyl ester] |
| 36.1 nM | > 10200 nM | CC(C)Oc1ncc(-n2cc(C(O)c3c(C4CC4)sc4cncn34)nn2)cc1Cl (racemic) [Example 73, rac-[1-(5-Chloro-6-isopropoxy-pyridin-3-yl)-1H-[1,2,3]triazol-4-yl]-(2-cyclopropyl-imidazo[5,1-b]thiazol-3-yl)-methanol] |
| 205 nM | > 10200 nM | CCOc1ccc(-n2cc(C(O)c3c(C)sc4cncn34)nn2)cn1 (racemic) [Example 55, rac-[1-(6-Ethoxy-pyridin-3-yl)-1H-[1,2,3]triazol-4-yl]-(2-methyl-imidazo[5,1-b]thiazol-3-yl)-methanol] |
| 18.3 nM | > 10200 nM | CC(=O)Nc1ccc(-n2cc(C(O)c3c(C4CC4)sc4cncn34)nn2)cc1 (racemic) [Example 95, rac-N-(4-{4-[(2-Cyclopropyl-imidazo[5,1-b]thiazol-3-yl)-hydroxy-methyl]-[1,2,3]triazol-1-yl}-phenyl)-acetamide] |
| 19.5 nM | > 10200 nM | CC1(c2sc3cncn3c2C(O)c2cn(-c3ccc(OCC4(F)COC4)c(Cl)c3)nn2)CC1 (racemic) [Example 315, rac-{1-[3-Chloro-4-(3-fluoro-oxetan-3-ylmethoxy)-phenyl]-1H-[1,2,3]triazol-4-yl}-[2-(1-methyl-cyclopropyl)-imidazo[5,1-b]thiazol-3-yl]-methanol] |
| 5.36 nM | > 10200 nM | O=c1[nH]c2ccc(-n3cc(C(O)c4c(C5CC5)sc5cncn45)nn3)cc2o1 (racemic) [Example 179, rac-6-{4-[(2-Cyclopropyl-imidazo[5,1-b]thiazol-3-yl)-hydroxy-methyl]-[1,2,3]triazol-1-yl}-3H-benzooxazol-2-one] |
